# Read-outs that look alike come from different tables or passages of the source.
# Key:
# HDAC6 [1] = settings: cited from earlier work
# histone H4 acetylation = experiment: Western blot of acetylated histone H4 in AMO cells; format: cell-based, human; settings: 72 h
# Experimental: (§1) Total protein extracts were prepared using NP-40 Cell Lysis Buffer supplemented with Halt™ Protease Inhibitor Cocktail (Thermo Fisher Scientific, Waltham, MA, USA), as reported.
# (§2) Protein samples (30 µg per lane) were resolved on 10% SDS-PAGE gels and subsequently transferred onto nitrocellulose membranes using the Trans-Blot Turbo Transfer System (Bio-Rad Laboratories, Hercules, CA, USA). Membranes were then blocked and incubated with the following primary antibodies: acetylated-α Tubulin (#sc-23950; Santa Cruz Biotechnology, Dallas, TX, USA), acetylated-histone H4 (#sc-34263; Santa Cruz Biotechnology) or histone H4 (#AB5823; abcam). GAPDH (MA5-15738; Thermo Fisher Scientific, Waltham, MA, USA) was used as loading control. Protein bands were visualized using the Clarity Western ECL Substrate (Bio-Rad Laboratories, Hercules, CA, USA), and chemiluminescence signals were quantified using the UVITEC Imaging System (Cleaver Scientific, Warwickshire, UK).
# 293T cells = experiment: CellTiter-Glo cell viability, 293T; format: cell-based; settings: 72 h
# AMO-BZB cells = experiment: CellTiter-Glo cell viability, AMO-BZB; format: cell-based; settings: Homo sapiens; AMO-BZB (bortezomib-resistant), 72 h, mean ± SD
# Experimental: (§3) The MM cell lines used in this study were: AMO, AMO-BZB, NCI-H929 and NCI-H929-BZB. AMO and AMO-BZB cells were provided by Dr. C. Driessen (University of Tubingen, Tübingen, Germany). The NCI-H929 cell line was purchased from DSMZ (Braunschweig, Germany). Bortezomib (BZB)-resistant NCI-H929 cells were selected by incubation with increasing concentrations of the drug. Human MM cell lines were cultured in RPMI-1640 medium (Corning, Turin, Italy) supplemented with 10% of heat-inactivated fetal bovine serum (FBS) (Gibco®, Life Technologies, Carlsbad, CA, USA), 100 U/mL of Penicillin and 100 µg/mL of Streptomycin (P/S) (Gibco®, Life Technologies, Carlsbad, CA, USA) and incubated at 37 °C in a 5% CO2 atmosphere. Peripheral blood mononuclear cells (PBMCs) were isolated by Ficoll-hypaque (Lonza Group, Basel, Switzerland) from healthy donors, following informed consent and Institutional Review Board (University of Catanzaro, Catanzaro, Italy) approval (institutional approval: n.266/2021). […]
# (§4) Cell viability was assessed using the CellTiter-Glo (CTG) assay kit (Promega, Madison, WI, USA), as reported. […] Luminescence was measured using the GloMax-Multi Detection System (Promega, Madison, WI, USA).
# acetylated α-tubulin = experiment: Western blot of acetylated α-tubulin in MM cell lines; format: cell-based, human; settings: AMO and AMO-BZB
# Experimental: as §1, §2
# H929 cells = experiment: CellTiter-Glo cell viability, H929; format: cell-based; settings: Homo sapiens, NCI-H929; H929, 72 h, mean ± SD
# Experimental: as §3, §4
# H929-BZB cells = experiment: CellTiter-Glo cell viability, H929-BZB; format: cell-based; settings: Homo sapiens; H929-BZB (bortezomib-resistant), 72 h, mean ± SD
# Experimental: as §3, §4
# AMO cells = experiment: CellTiter-Glo cell viability, AMO; format: cell-based; settings: Homo sapiens, 72 h, mean ± SD
# Experimental: as §3, §4
# [2] = target: T1, HDAC6 human recombinant enzyme (Homo sapiens, UniProt Q9UBN7); experiment: Fluorogenic HDAC6 inhibition assay (BPS Bioscience kit); format: biochemical; settings: mean ± SD, three independent experiments
# T1 sequence (Q9UBN7 1-1215): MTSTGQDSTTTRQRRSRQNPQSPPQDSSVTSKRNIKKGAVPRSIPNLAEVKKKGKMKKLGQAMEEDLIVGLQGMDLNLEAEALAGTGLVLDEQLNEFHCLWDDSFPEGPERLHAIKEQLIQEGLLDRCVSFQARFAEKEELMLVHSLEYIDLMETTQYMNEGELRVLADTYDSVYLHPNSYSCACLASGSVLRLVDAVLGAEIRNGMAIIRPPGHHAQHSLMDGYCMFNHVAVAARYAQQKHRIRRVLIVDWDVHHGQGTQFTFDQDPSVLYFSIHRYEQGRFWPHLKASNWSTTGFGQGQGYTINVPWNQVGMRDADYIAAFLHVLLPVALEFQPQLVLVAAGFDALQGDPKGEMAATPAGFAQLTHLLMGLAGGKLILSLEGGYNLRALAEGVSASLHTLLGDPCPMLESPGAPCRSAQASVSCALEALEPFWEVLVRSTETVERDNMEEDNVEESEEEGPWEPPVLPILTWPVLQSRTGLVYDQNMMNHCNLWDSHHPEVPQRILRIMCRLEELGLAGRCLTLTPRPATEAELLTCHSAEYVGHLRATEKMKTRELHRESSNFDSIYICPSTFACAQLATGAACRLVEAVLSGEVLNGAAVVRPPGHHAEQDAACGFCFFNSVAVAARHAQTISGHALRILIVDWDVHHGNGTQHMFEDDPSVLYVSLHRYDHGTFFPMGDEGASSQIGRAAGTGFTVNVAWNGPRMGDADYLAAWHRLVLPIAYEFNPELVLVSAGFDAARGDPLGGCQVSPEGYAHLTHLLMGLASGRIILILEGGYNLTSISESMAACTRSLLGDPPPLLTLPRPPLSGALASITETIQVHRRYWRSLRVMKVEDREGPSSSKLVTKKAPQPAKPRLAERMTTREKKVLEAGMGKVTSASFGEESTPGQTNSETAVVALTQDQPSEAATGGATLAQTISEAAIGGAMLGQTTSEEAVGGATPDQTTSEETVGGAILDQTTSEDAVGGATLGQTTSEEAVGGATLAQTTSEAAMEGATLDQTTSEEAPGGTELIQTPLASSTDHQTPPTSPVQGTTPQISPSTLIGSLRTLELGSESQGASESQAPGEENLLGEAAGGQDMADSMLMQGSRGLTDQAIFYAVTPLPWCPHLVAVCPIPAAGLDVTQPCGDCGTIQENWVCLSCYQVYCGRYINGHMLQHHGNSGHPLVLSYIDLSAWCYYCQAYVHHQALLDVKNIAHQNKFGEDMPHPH
# [3] = tested on: healthy peripheral blood mononuclear cells (PBMCs); experiment: CellTiter-Glo cell viability, healthy PBMCs; format: cell-based; settings: 72 h
# Experimental: as §3, §4
# HDAC6 [4] = settings: cited from earlier work; remark: listed apart in the source
# [5] = Table S1, ref DOI 10.1039/D2RA01753A
compound,measurement,setting,value
COc1ccc(C(=O)NC2CCN(C(=O)Nc3ccc(/C=C/C(=O)NO)cc3)CC2)cc1,IC50,HDAC6 [1],12.3 nM
O=C(NO)c1ccc(CN2CC(=O)N(Cc3ccccc3)[C@H](Cc3ccccc3)C2=O)cc1,IC50,HDAC6 [1],9.83 nM
Nc1nc2c3ccc(Cc4ccc(C(=O)NO)cc4)cc3nc(Cc3ccc4c(c3)OCO4)n2n1,IC50,HDAC6 [1]; [5],0.5 nM
O=C(NO)c1ccc(CN2c3ccccc3Sc3cccnc32)cc1,IC50,"HDAC6 [1]; Table S1, ref PMID 30645113",5 nM
CN(C)c1ccc(C(=O)N2CCC(n3cc(C(=O)NCCCCCC(=O)NO)nn3)CC2)cc1,IC50,HDAC6 [1],11.5 nM
O=C(NO)c1ccc(Cn2c(=O)n(CCc3ccccc3)c(=O)c3ccccc32)cc1,IC50,HDAC6 [1],4 nM
O=C(CCCCCNC(=O)c1cn(Cc2ccc(NS(=O)(=O)c3ccc(Br)cc3)cc2)nn1)NO,IC50,HDAC6 [1],8.4 nM
O=C(CCCCCCC[C@H]1C(=O)[C@H]2CCC(=O)N2Cc2ccccc21)NO,IC50,HDAC6 [1],21.4 nM
"O=C(CCC=C1CCN(C(=O)OCc2ccccc2)CC1)NO [Compound 10, benzyl 4-[4-(hydroxyamino)-4-oxobutylidene]piperidine-1-carboxylate]",impact on histone H4 acetylation,histone H4 acetylation,moderate
same,effect on viability of non-transformed cells,293T cells,negligible effects
same,IC50,AMO-BZB cells,48600 nM
same,acetylated α-tubulin levels,acetylated α-tubulin; 72 h after treatment,marked increase
same,IC50,H929 cells,18000 nM
same,IC50,H929-BZB cells,30400 nM
same,IC50,AMO cells,13200 nM
same,IC50,[2],1690 ± 420 nM
same,effect on viability of healthy PBMCs,[3],negligible effects
Nc1n[nH]c(-c2cc(Cc3ccc(C(=O)NO)cc3)ccc2NC(=O)Cc2ccc3c(c2)OCO3)n1,IC50,HDAC6 [1]; [5],0.1 nM
O=C(NO)c1ccc(CN2C(=O)[C@@H](Cc3ccccc3)N(Cc3cccnc3)C2=O)cc1,IC50,HDAC6 [1],2.1 nM
COC(=O)c1ccc2ccccc2c1OCCCCCCCC(=O)NO [ONC(=O)CCCCCCCOc1c(C(=O)OC)ccc(c12)cccc2],IC50,"HDAC6 [1]; Table S1, ref PMID 31223439",95 nM
O=C(NO)c1ccc(N2C(=O)/C(=C3\Nc4ccccc4\C3=N/O)c3ccccc32)cc1,IC50,"HDAC6 [1]; Table S1, ref PMID 32916298",7 nM
COc1ccc(-c2ncc(C(=O)NCCCCCC(=O)NO)s2)c(OC)c1,IC50,HDAC6 [1],31 nM
C=CCC.CC[C@@H]1NC(=O)CN(Cc2ccc(C(=O)NO)cc2)C1=O,IC50,HDAC6 [1],0.73 nM
O=C(NO)c1ccc(COC(=O)N2CCC3(CC2)CN(Cc2ccccc2)c2ccccc23)cc1,IC50,HDAC6 [1],48.5 nM
O=C(Cc1cccc2ccccc12)C[C@@H](Cc1ccccc1)C(=O)NO,IC50,HDAC6 [1],88 nM
CCCON(Cc1ccc(C(=O)NO)cc1)C(=O)Nc1cc(C)cc(C)c1,IC50,HDAC6 [1],14 nM
O=C(CCCCCNC(=O)c1cn(C2CCN(S(=O)(=O)c3ccc4ccccc4c3)CC2)nn1)NO,IC50,HDAC6 [1],8.6 nM
CCN(CC)Cc1ccc(Cn2c(=O)c(OCc3ccc(C(=O)NO)cc3)c(-c3ccccc3)c3ccccc32)cc1,IC50,"HDAC6 [1]; Table S1, ref PMID 33199154",6.9 nM
CC(C)Oc1ccc(-c2csc(NC(=O)c3ncn[nH]3)n2)cc1 [Compound 9],IC50,[2],> 25000 nM
ACY-1215,acetylated α-tubulin levels,acetylated α-tubulin; 48 h after treatment,marked increase
O=C(NO)c1ccc(CN(Cc2cccnc2)S(=O)(=O)c2cc(F)c(F)c(F)c2F)cc1,IC50,"HDAC6 [1]; Table S1, ref PMID 33576627",2.1 nM
O=C(NO)c1ccc(CN(Cc2nnnn2Cc2ccccc2)C(=O)c2ccccc2C(F)(F)F)cc1,IC50,"HDAC6 [1]; Table S1, ref PMID 32803970",30 nM
NCc1ccc(NC(=O)N(CCCCO)Cc2ccc(C(=O)NO)cc2)cc1,IC50,"HDAC6 [1]; Table S1, ref PMID 32815366",0.4 nM
O=C(CCCCCCNC(=O)c1cnc(N(c2ccccc2)c2ccccc2Cl)nc1)NO [ACY-241],selectivity ratio,HDAC6 [4],~10
O=C(NO)c1ccc(CNc2ncnc3[nH]ccc23)cc1 [ONC(=O)c1ccc(cc1)CNc2ncnc(c23)[nH]cc3],IC50,HDAC6 [1],10 nM

# Reference: article PMC12472302, “Discovery of a Promising Hydroxyamino-Piperidine HDAC6 Inhibitor via Integrated Virtual Screening and Experimental Validation in Multiple Myeloma” (Pharmaceuticals, 2025)
